The text below walks through data of patent publication US20240174629A1 (OTCPHARM JSC, priority 2021, published 2024).

The nature of data set [1]: Cytotoxicity, microtetrazolium test (MTT). The note with it: dog, MDCK cells, CC50 (MDCK), mean ±SD.
Data set [2] can be described thus: Acute oral toxicity, fixed dose method (OECD 420). The note with it: for GHS hazard class: acute oral toxicity in mice, UN GHS classification; for Died / Survived: female BALB/c mice, intragastric, 2000 mg/kg.

Values after ≈ are worked out from the molar mass of the structure shown.

Usually CC50 stands for the concentration giving 50% cytotoxicity. The term melting point denotes the temperature, or range, at which the solid turns liquid.

The molecule `CCOC(=O)c1c(N(Cc2ccccc2)C(C)=O)sc2cc(O)ccc12` [Example 2, Ethyl 2-[acetyl(benzyl)amino]-6-hydroxy-1-benzothiophene-3-carboxylate] had a melting point of 146 to 148 °C. The CC50 at 48 h in data set [1] worked out at 11.7 ± 0.6 mg/L (≈ 31.7 µM).
The like results for `CNC(=O)c1c(N(Cc2ccc(F)cc2)C(C)=O)sc2c(Cl)c(O)ccc12` [Example 77] were, in that order, 192 to 195 °C and 32.2 ± 2.4 mg/L (≈ 79.1 µM).
The like results for `COC(=O)c1c(N(CCc2ccccc2)C(C)=O)sc2cc(O)ccc12` [Example 36, Methyl 2-[acetyl(2-phenylethyl)amino]-6-hydroxy-1-benzothiophene-3-carboxylate] were, in that order, 190 to 194 °C and over 300 mg/L.
For `CC(=O)N(Cc1ccccc1)c1sc2cc(O)ccc2c1C(=O)OC(C)C` [Example 8, Isopropyl 2-[acetyl(benzyl)amino]-6-hydroxy-1-benzothiophene-3-carboxylate], in that order: 126 to 130 °C and 13.9 ± 1.1 mg/L (≈ 36.2 µM).
`COC(=O)c1c(N(Cc2ccc3ccccc3c2)C(C)=O)sc2c(Cl)c(O)ccc12` [Example 33, Methyl 2-[acetyl(2-naphthylmethyl)amino]-7-chloro-6-hydroxy-1-benzothiophene-3-carboxylate] yielded a melting point of 185 to 190 °C. This molecule registered a CC50 at 48 h in data set [1] of 3.7 ± 0.4 mg/L (≈ 8.41 µM).
Take `COC(=O)c1c(N(Cc2cccc(F)c2)C(C)=O)sc2c(CN(C)C)c(O)ccc12` [Example 53]: the melting point lay in the range of 142 to 144 °C. The CC50 at 48 h in data set [1] was over 300 mg/L.
The molecule `CCCNC(=O)c1c(N(Cc2ccccc2)C(C)=O)sc2cc(O)ccc12` [Example 80, 2-[acetyl(benzyl)amino]-6-hydroxy-N-propyl-1-benzothiophene-3-carboxamide] yielded a melting point of 85 to 90 °C. In data set [1], this molecule registered a CC50 at 48 h of 240 ± 16 mg/L (≈ 627 µM).
`CNC(=O)c1c(N(Cc2ccccc2)C(C)=O)sc2c(Cl)c(O)ccc12` [Example 72, 2-[acetyl(benzyl)amino]-7-chloro-6-hydroxy-N-methyl-1-benzothiophene-3-carboxamide] returned a CC50 at 48 h in data set [1] of 160 ± 11 mg/L (≈ 411 µM). Moreover, in data set [2], the GHS hazard class worked out at 5, the Died was 0 and the Survived stood at 4.
As to `COC(=O)c1c(N(Cc2ccccc2F)C(C)=O)sc2c(Cl)c(O)ccc12` [Example 23, Methyl 2-[acetyl(2-fluorobenzyl)amino]-7-chloro-6-hydroxy-1-benzothiophene-3-carboxylate], the CC50 at 48 h in data set [1] is over 300 mg/L. Besides, in data set [2], the GHS hazard class turned out to be 5, the Died was 0 and the Survived amounted to 4.
For `COC(=O)c1c(N(CCc2ccccc2F)C(C)=O)sc2c(CN(C)C)c(O)ccc12` [Example 56, Methyl 2-{acetyl[2-(2-fluorophenyl)ethyl]amino}-7-[(dimethylamino)methyl]-6-hydroxy-1-benzothiophene-3-carboxylate], the melting point fell in the range of 114 to 120 °C. In addition, the CC50 at 48 h in data set [1] was over 300 mg/L.
In turn, `COC(=O)c1c(N(Cc2ccccc2F)C(C)=O)sc2c(CN(C)C)c(O)ccc12` [Example 52] yielded a CC50 at 48 h in data set [1] of 180 ± 16 mg/L (≈ 418 µM). Also, in data set [2], the GHS hazard class worked out at 5, the Died is on record as 0 and the Survived was 4.
As for `CC(=O)N(Cc1ccccc1)c1sc2c(Cl)c(O)ccc2c1C(=O)N1CCCCC1` [Example 82, N-benzyl-N-[7-chloro-6-hydroxy-3-(piperidin-1-ylcarbonyl)-1-benzothien-2-yl]acetamide], the melting point lay within 95 to 100 °C. The molecule further showed a CC50 at 48 h in data set [1] of 16.3 ± 0.8 mg/L (≈ 36.8 µM).
The like results for `COC(=O)c1c(N(Cc2cccc(F)c2)C(C)=O)sc2c(Cl)c(O)ccc12` [Example 25, Methyl 2-[acetyl(3-fluorobenzyl)amino]-7-chloro-6-hydroxy-1-benzothiophene-3-carboxylate] were, in that order, 152 to 155 °C and 25.5 ± 2.7 mg/L (≈ 62.5 µM).
For `CCOC(=O)c1c(N(Cc2ccccc2)C(C)=O)sc2c(Cl)c(O)ccc12` [Example 1, Ethyl 2-[acetyl(benzyl)amino]-7-chloro-6-hydroxy-1-benzothiophene-3-carboxylate], in that order: 151 to 155 °C and over 300 mg/L.
`COC(=O)c1c(N(Cc2ccccc2C#N)C(C)=O)sc2c(CN(C)C)c(O)ccc12` [Example 60] showed a melting point of 178 to 182 °C. In data set [1], this molecule had a CC50 at 48 h of over 300 mg/L.
Molecule `CC(=O)N(Cc1ccccc1)c1sc2c(Cl)c(O)ccc2c1C(=O)OC(C)(C)C` [Example 5, Tert-butyl 2-[acetyl(benzyl)amino]-7-chloro-6-hydroxy-1-benzothiophene-3-carboxylate] returned a melting point of 200 to 205 °C. This molecule had a CC50 at 48 h in data set [1] of 4.1 ± 0.2 mg/L (≈ 9.49 µM).
The molecule `CC(=O)N(Cc1ccccc1Cl)c1sc2c(Cl)c(O)ccc2c1C(=O)O` [Example 68, 2-[acetyl(2-chlorobenzyl)amino]-7-chloro-6-hydroxy-1-benzothiophene-3-carboxylic acid] registered a melting point of 265 to 270 °C. This molecule had a CC50 at 48 h in data set [1] of 65 ± 4 mg/L (≈ 158 µM).
The like results for `COC(=O)c1c(N(Cc2ccccc2Cl)C(C)=O)sc2cc(O)ccc12` [Example 16, Methyl 2-[acetyl(2-chlorobenzyl)amino]-6-hydroxy-1-benzothiophene-3-carboxylate] were, in that order, 220 to 224 °C and 21 mg/L (≈ 53.9 µM).
The like results for `CC(=O)N(Cc1ccccc1)c1sc2c(Cl)c(O)ccc2c1C(=O)OC(C)C` [Example 7, Isopropyl 2-[acetyl(benzyl)amino]-7-chloro-6-hydroxy-1-benzothiophene-3-carboxylate] were, in that order, 164 to 168 °C and 2.2 ± 0.3 mg/L (≈ 5.26 µM).
`COC(=O)c1c(N(Cc2ccc(C(C)C)cc2)C(C)=O)sc2c(Cl)c(O)ccc12` [Example 41, Methyl 2-[acetyl(4-isopropylbenzyl)amino]-7-chloro-6-hydroxy-1-benzothiophene-3-carboxylate] had a melting point of 183 to 186 °C. Further, it took 5 ± 0.5 mg/L (≈ 11.6 µM) to reach half-maximal cytotoxicity in data set [1] (CC50 at 48 h).
The like results for `CNC(=O)c1c(N(Cc2ccccc2F)C(C)=O)sc2cc(O)ccc12` [Example 76, 2-[acetyl(2-fluorobenzyl)amino]-6-hydroxy-N-methyl-1-benzothiophene-3-carboxamide] were, in that order, 105 to 112 °C and over 300 mg/L.
The like results for `CC(=O)N(Cc1ccc(F)cc1F)c1sc2c(Cl)c(O)ccc2c1C(=O)O` [Example 71, 2-[acetyl(2,4-difluorobenzyl)amino]-7-chloro-6-hydroxy-1-benzothiophene-3-carboxylic acid] were, in that order, 238 to 242 °C and 210 ± 16 mg/L (≈ 510 µM).
With `CC(=O)N(Cc1ccccc1)c1sc2c(Cl)c(O)ccc2c1C(=O)O` [Example 66, 2-[acetyl(benzyl)amino]-7-chloro-6-hydroxy-1-benzothiophene-3-carboxylic acid], the melting point lay within 240 to 245 °C. In data set [1], the CC50 at 48 h was over 300 mg/L.
The like results for `CNC(=O)c1c(N(Cc2ccccc2F)C(C)=O)sc2c(CN(C)C)c(O)ccc12` [Example 84, 2-[acetyl(2-fluorobenzyl)amino]-7-[(dimethylamino)methyl]-6-hydroxy-N-methyl-1-benzothiophene-3-carboxamide] were, in that order, 122 to 126 °C and over 300 mg/L.
